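Results reflect a 48-hour exposure of cells in 96-well plates to compound at five concentrations. GI50 marks 50% less growth.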 Active and inactive are the calls of the source. Rule as the data show it: active = GI50 up to about 1.1 µM and inactive = higher.
Assays:
Assay in all cases: DTP human tumour cell line panel, 48 h
CAKI-1 = test system: CAKI-1
EKVX = test system: EKVX
HCC 2998 = test system: HCC 2998
HCT-15 = test system: HCT-15
HOP-62 = test system: HOP-62
HT-29 = test system: HT-29
Hs-578T = test system: Hs-578T
Malme-3M = test system: Malme-3M
NCI-H522 = test system: NCI-H522
PC-3 = test system: PC-3
RPMI-8226 = test system: RPMI-8226
RXF 393 = test system: RXF 393
SK-MEL-5 = test system: SK-MEL-5
SK-OV-3 = test system: SK-OV-3
SN12C = test system: SN12C
SNB-19 = test system: SNB-19
SNB-75 = test system: SNB-75
U-251 = test system: U-251
UACC-257 = test system: UACC-257
CCRF-CEM = test system: CCRF-CEM

For `CC(NC(=O)C(CC(=O)OCc1ccccc1)NC(=O)OCc1ccccc1)c1ccccc1` (stereo unspecified), the GI50 (CAKI-1) was 83.4 µM (inactive), the GI50 (EKVX) was > 100 µM (inactive) and the GI50 (HCC 2998) was > 100 µM (inactive). The GI50 (HCT-15) was over 100 µM, the GI50 (HOP-62) was 49.2 µM (inactive) and the GI50 (HT-29) was > 100 µM (inactive). For the same molecule, the GI50 (Hs-578T) was > 100 µM (inactive), the GI50 (Malme-3M) was 73.3 µM (inactive) and the GI50 (NCI-H522) was 37.4 µM (inactive). The GI50 (PC-3) was 35.3 µM (inactive), the GI50 (RPMI-8226) was > 100 µM (inactive) and the GI50 (RXF 393) was 19.2 µM (inactive). The GI50 (SK-MEL-5) was > 100 µM (inactive), the GI50 (SK-OV-3) was 83.2 µM (inactive) and the GI50 (SN12C) was > 100 µM (inactive). The GI50 (SNB-19) was 48 µM (inactive), the GI50 (SNB-75) was > 100 µM (inactive) and the GI50 (U-251) was > 100 µM (inactive). For the same molecule, the GI50 (UACC-257) was > 10 µM (inactive).
For `NC1=NCCN1CC(=O)O` [CYCLOCREATINE], the GI50 (CAKI-1) was > 10000 µM (inactive), the GI50 (CCRF-CEM) was > 1000 µM (inactive) and the GI50 (EKVX) was > 10000 µM (inactive). The GI50 (HCC 2998) was > 1000 µM (inactive), the GI50 (HCT-15) was over 1000 µM and the GI50 (HOP-62) was > 1000 µM (inactive). The GI50 (HT-29) was > 1000 µM (inactive), the GI50 (Hs-578T) was 4040 µM (inactive) and the GI50 (Malme-3M) was > 1000 µM (inactive). For the same molecule, the GI50 (NCI-H522) was > 10000 µM (inactive), the GI50 (PC-3) was > 1000 µM (inactive) and the GI50 (RPMI-8226) was > 1000 µM (inactive). The GI50 (RXF 393) was > 1000 µM (inactive), the GI50 (SK-MEL-5) was > 1000 µM (inactive) and the GI50 (SK-OV-3) was > 1000 µM (inactive). For the same molecule, the GI50 (SN12C) was > 1000 µM (inactive), the GI50 (SNB-19) was > 1000 µM (inactive) and the GI50 (U-251) was > 1000 µM (inactive). The GI50 (UACC-257) was > 1000 µM (inactive).
In the case of `Cc1cc2nc3c(N)nn(CCCN(C)C)c3nc2cc1C`, the GI50 (CAKI-1) is reported as > 100 µM (inactive), the GI50 (EKVX) is reported as > 100 µM (inactive) and the GI50 (HCC 2998) is reported as 41.3 µM (inactive). For the same molecule, the GI50 (HCT-15) was over 100 µM, the GI50 (HOP-62) was > 100 µM (inactive) and the GI50 (HT-29) was 38.3 µM (inactive). For the same molecule, the GI50 (Hs-578T) was > 100 µM (inactive), the GI50 (PC-3) was > 100 µM (inactive) and the GI50 (RPMI-8226) was > 100 µM (inactive). The GI50 (RXF 393) was > 100 µM (inactive), the GI50 (SK-MEL-5) was > 100 µM (inactive) and the GI50 (SK-OV-3) was > 100 µM (inactive). The GI50 (SN12C) was > 100 µM (inactive), the GI50 (SNB-19) was > 100 µM (inactive) and the GI50 (SNB-75) was > 100 µM (inactive). For the same molecule, the GI50 (U-251) was 71.9 µM (inactive) and the GI50 (UACC-257) was 97.5 µM (inactive).
With `CCOn1cc(C[C@@]2(O)C(=O)OC3[C@@H](O)CO[C@@]32O)c2ccccc21` (stereo partly specified) the GI50 (CAKI-1) was > 100 µM (inactive), the GI50 (CCRF-CEM) was 36.5 µM (inactive) and the GI50 (EKVX) was > 100 µM (inactive). The GI50 (HCT-15) was over 100 µM, the GI50 (HOP-62) was > 100 µM (inactive) and the GI50 (HT-29) was > 100 µM (inactive). For the same molecule, the GI50 (Hs-578T) was > 100 µM (inactive), the GI50 (Malme-3M) was > 100 µM (inactive) and the GI50 (NCI-H522) was > 100 µM (inactive). The GI50 (PC-3) was > 100 µM (inactive), the GI50 (RPMI-8226) was > 100 µM (inactive) and the GI50 (RXF 393) was > 100 µM (inactive). The GI50 (SK-MEL-5) was > 100 µM (inactive), the GI50 (SK-OV-3) was > 100 µM (inactive) and the GI50 (SN12C) was > 100 µM (inactive). The GI50 (SNB-19) was > 100 µM (inactive), the GI50 (SNB-75) was > 100 µM (inactive) and the GI50 (U-251) was > 100 µM (inactive). For the same molecule, the GI50 (UACC-257) was > 100 µM (inactive).
In the case of `O=C(O)c1c2c(cc3c1CC1(Cc4ccccc4C1)C3)CCC2`, the GI50 (CAKI-1) is reported as 53.2 µM (inactive), the GI50 (CCRF-CEM) is reported as 23.3 µM (inactive) and the GI50 (EKVX) is reported as 40.6 µM (inactive). For the same molecule, the GI50 (HCC 2998) was > 100 µM (inactive), the GI50 (HCT-15) was 82.4 µM and the GI50 (HOP-62) was > 100 µM (inactive). The GI50 (HT-29) was 73.8 µM (inactive), the GI50 (Hs-578T) was 63.8 µM (inactive) and the GI50 (Malme-3M) was 51.3 µM (inactive). The GI50 (NCI-H522) was 49.1 µM (inactive), the GI50 (PC-3) was > 100 µM (inactive) and the GI50 (RPMI-8226) was 33.9 µM (inactive). The GI50 (RXF 393) was > 100 µM (inactive), the GI50 (SK-MEL-5) was 59.7 µM (inactive) and the GI50 (SK-OV-3) was > 100 µM (inactive). The GI50 (SN12C) was 67.6 µM (inactive), the GI50 (SNB-75) was > 100 µM (inactive) and the GI50 (U-251) was 42.6 µM (inactive). For the same molecule, the GI50 (UACC-257) was > 100 µM (inactive).
`N#CC(C#N)=C1c2ccccc2C(=NN)c2ccccc21` was tested, and the GI50 (CAKI-1) was > 25.7 µM (inactive), the GI50 (CCRF-CEM) was > 100 µM (inactive) and the GI50 (HCC 2998) was > 100 µM (inactive). For the same molecule, the GI50 (HCT-15) was over 100 µM, the GI50 (HOP-62) was 10.6 µM (inactive) and the GI50 (HT-29) was > 100 µM (inactive). The GI50 (Hs-578T) was 9.57 µM (inactive), the GI50 (Malme-3M) was 92.9 µM (inactive) and the GI50 (NCI-H522) was 3.58 µM (inactive). The GI50 (PC-3) was > 100 µM (inactive), the GI50 (RPMI-8226) was > 100 µM (inactive) and the GI50 (RXF 393) was 27.5 µM (inactive). The GI50 (SK-MEL-5) was 14.8 µM (inactive), the GI50 (SK-OV-3) was > 100 µM (inactive) and the GI50 (SN12C) was > 100 µM (inactive). The GI50 (SNB-19) was > 100 µM (inactive), the GI50 (SNB-75) was > 43.9 µM (inactive) and the GI50 (U-251) was 37.3 µM (inactive). The GI50 (UACC-257) was > 100 µM (inactive).
With `Cn1c(=O)c2sc3cc4c(cc3c2c2ccccc21)sc1c(=O)n(C)c2ccccc2c14` the GI50 (CAKI-1) was > 100 µM (inactive), the GI50 (CCRF-CEM) was 40.1 µM (inactive) and the GI50 (EKVX) was > 100 µM (inactive). The GI50 (HCC 2998) was > 100 µM (inactive), the GI50 (HCT-15) was over 100 µM and the GI50 (HOP-62) was 19.9 µM (inactive). For the same molecule, the GI50 (HT-29) was > 100 µM (inactive), the GI50 (Hs-578T) was 43.4 µM (inactive) and the GI50 (Malme-3M) was 81.7 µM (inactive). The GI50 (NCI-H522) was 34.2 µM (inactive), the GI50 (PC-3) was > 100 µM (inactive) and the GI50 (RPMI-8226) was > 100 µM (inactive). The GI50 (RXF 393) was 15.9 µM (inactive), the GI50 (SK-MEL-5) was > 100 µM (inactive) and the GI50 (SK-OV-3) was > 100 µM (inactive). The GI50 (SN12C) was > 100 µM (inactive), the GI50 (SNB-75) was 12.9 µM (inactive) and the GI50 (U-251) was 19 µM (inactive). The GI50 (UACC-257) was > 100 µM (inactive).

— ChEMBL document CHEMBL1201862, “PubChem BioAssay data set” (2004)
